From patent US12152030B2 (NOVOSTAR PHARMACEUTICALS, LTD., priority 2019, dated 2024) come the findings set out here.

Counter-ions that a name gives are not always drawn.

Series [1] is described as follows: Pharmacokinetic study in rats. The conditions noted are these: male, SD, plasma, rat. It counts as in vivo. The procedure:
In the examples, rat pharmacokinetic tests were performed for compounds 2 and 26 to illustrate their pharmacokinetic properties in rats.
Formulation of Liquors of Compound 2: […]
Experimental Method for Pharmacokinetic Study in Rats
(§1) Six SD rats, male, weighing 180-220 g, fasting for 12 hours, were randomly divided into 2 groups, 3 in each group. The animals in group A were intragastrically administrated with the compound liquor at a dose of 10 mg/kg; the animals in group B were intravenously administrated with the compound liquor via tails at a dose of 3 mg/kg. Blank blood was harvested before administration; about 100 μL of venous blood was harvested at different time points after administration, placed in a test tube added with heparin and centrifuged, and about 50 μL of blood plasma was collected and stored at −20° C. for testing.
Formulation of Liquors of Compound 26: […]
Formulation of solution for intravenous administration: compound 26 was dissolved in a solution of 5% DMSO+10% Solutol HS15+85% (20% HP-(3-CD physiological saline).
Formulation of suspension for intragastric administration: compound 26 was dissolved in a solution of 5% DMSO+10% Solutol HS15+85% (20% HP-(3-CD physiological saline).
Administration dosage of compound 26: 1 mg/kg for intravenous injection, 3 mg/kg for intragastric administration.
as §1, with “of 3” for “of 10”, “of 1” for “of 3”

The target in a further series is MNK2 (Homo sapiens, UniProt Q9HBH9). The experiment in a line: KinomeScan, MNK2. It counts as binding. The text has this:
(§2) KinomeScan was used to determine the kinase selectivity of compound 2.

Another series concerns the target MNK1 (Homo sapiens, UniProt Q9BUB5). In words: KinomeScan, MNK1. The format is binding.
Source text: as §2

For another series, the target named is T1, GAK (Homo sapiens, UniProt O14976).
T1 sequence (O14976 1-1311): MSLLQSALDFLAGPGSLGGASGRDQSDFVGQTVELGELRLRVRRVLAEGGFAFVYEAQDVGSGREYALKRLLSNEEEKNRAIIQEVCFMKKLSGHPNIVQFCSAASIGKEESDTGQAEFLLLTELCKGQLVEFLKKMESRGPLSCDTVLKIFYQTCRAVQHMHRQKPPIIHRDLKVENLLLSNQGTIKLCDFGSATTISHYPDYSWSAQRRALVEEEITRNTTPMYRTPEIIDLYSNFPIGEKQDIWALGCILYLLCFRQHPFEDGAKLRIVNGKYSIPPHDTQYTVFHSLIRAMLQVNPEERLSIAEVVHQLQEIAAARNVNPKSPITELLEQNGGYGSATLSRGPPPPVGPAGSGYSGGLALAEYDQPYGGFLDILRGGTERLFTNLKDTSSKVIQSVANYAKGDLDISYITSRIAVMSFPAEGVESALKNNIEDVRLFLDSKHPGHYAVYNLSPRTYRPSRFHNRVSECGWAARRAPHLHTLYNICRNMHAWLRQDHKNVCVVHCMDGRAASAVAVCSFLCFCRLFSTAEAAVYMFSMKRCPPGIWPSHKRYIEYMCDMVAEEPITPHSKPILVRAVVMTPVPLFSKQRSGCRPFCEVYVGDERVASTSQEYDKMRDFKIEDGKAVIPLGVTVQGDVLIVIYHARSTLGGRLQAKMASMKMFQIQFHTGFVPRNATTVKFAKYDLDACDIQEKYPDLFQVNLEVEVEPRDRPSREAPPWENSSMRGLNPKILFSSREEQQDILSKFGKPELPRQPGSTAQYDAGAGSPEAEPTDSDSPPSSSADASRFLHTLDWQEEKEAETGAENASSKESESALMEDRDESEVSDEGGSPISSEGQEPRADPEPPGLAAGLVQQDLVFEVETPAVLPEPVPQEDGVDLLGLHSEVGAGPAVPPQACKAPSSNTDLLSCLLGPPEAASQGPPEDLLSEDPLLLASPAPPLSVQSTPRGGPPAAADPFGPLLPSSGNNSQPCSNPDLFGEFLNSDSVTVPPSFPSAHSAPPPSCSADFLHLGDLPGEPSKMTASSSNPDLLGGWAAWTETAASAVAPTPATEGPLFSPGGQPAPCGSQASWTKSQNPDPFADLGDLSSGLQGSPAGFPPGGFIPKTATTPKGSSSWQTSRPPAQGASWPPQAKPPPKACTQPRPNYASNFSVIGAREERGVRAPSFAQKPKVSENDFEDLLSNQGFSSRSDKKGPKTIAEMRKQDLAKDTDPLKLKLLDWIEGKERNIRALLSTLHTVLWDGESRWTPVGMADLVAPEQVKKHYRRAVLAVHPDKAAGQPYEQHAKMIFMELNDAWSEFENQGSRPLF
In words: KinomeScan, GAK. The format is binding.
Source text: as §2

Chain of MNK1 (Q9BUB5 whole entry): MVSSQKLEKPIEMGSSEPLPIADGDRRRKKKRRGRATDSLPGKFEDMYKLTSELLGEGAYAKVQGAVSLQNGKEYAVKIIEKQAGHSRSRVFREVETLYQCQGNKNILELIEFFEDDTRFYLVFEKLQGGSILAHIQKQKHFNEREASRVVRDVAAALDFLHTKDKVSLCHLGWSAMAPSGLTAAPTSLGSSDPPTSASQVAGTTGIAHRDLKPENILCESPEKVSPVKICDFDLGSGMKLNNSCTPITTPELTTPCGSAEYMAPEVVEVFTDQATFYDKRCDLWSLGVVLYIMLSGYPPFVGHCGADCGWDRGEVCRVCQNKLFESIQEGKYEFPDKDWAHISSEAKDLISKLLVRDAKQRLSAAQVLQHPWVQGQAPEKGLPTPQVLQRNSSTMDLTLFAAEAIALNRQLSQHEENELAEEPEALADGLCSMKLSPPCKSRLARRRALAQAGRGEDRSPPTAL
Chain of MNK2 (Q9HBH9 whole entry): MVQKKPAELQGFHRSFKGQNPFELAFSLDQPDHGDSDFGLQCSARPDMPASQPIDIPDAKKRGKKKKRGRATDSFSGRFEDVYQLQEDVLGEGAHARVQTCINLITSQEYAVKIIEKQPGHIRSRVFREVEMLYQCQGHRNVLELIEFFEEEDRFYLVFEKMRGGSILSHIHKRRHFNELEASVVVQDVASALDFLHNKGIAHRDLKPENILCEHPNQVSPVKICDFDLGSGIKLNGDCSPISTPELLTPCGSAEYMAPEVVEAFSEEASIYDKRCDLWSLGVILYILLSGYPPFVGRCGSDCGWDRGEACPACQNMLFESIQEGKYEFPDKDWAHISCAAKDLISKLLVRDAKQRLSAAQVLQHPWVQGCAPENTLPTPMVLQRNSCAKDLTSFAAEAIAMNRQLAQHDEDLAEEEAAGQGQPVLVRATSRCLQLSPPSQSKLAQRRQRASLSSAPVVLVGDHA

The AUC(0-inf) is total exposure, with the tail of the curve extrapolated. A higher AUC(0-inf) goes with high exposure. By AUC(0-t) is commonly meant the area under the concentration-time curve up to a stated or last time point. High values mean more exposure, low ones less exposure. Usually clearance stands for the rate of elimination divided by the concentration. Read a low clearance as a low capacity for elimination. As a reminder, the half-life is how long it takes for the measured level to halve. Low readings indicate rapid decline, high ones slow decline. Broadly, the bioavailability is dose-corrected exposure relative to a reference, in per cent. Lower therefore signals poor availability. A word on the Cmax: it is the maximum level reached in the sampled fluid or tissue. The term Tmax denotes the time from dosing to the highest level. What is called inhibition is the relative decrease from the control value, in per cent. A high value points to a response far below the control. As usually defined, the Kd is the concentration at which binding is half-saturated. In series [1] (iv, 3 mg/kg), `Cc1c2c(c(=O)n3c1C(=O)NC31CCCCC1)Nc1cc(N)ncc1C2` [Compound 2, 8′-amino-12′-methyl-6′,11′-dihydro-2′H-spiro[cyclohexane-1,3′-imidazole[1′,5′:1,6]pyrido[3,4-B][1,6]naphthyridine]-1′,5′-dione hydrochloride] showed an area under the curve AUC(0-inf) of 471 ng·h/mL, an AUC(0-t) of 456 ng·h/mL, a clearance of 110 mL/min/kg and a half-life of 1.58 h. Also, the Vd in series [1] (iv, i.v., 3 mg/kg, read-out: Vz) came out at 12.3 L/kg. The bioavailability in series [1] (oral, p.o. 10 mg/kg vs i.v. 3 mg/kg) worked out at 38.8%. Further, in series [1] (po, 10 mg/kg), the AUC(0-inf) amounted to 624 ng·h/mL, the AUC(0-t) is 584 ng·h/mL, the peak concentration (Cmax) is 130 ng/mL and the Tmax is 2.17 h. In series [1] (po, 10 mg/kg), this compound showed a half-life of 5.07 h. On MNK2, this compound returned an inhibition at 1 µM of 99.5%. Moreover, at MNK1, the inhibition at 1 µM stood at 97.2%. For the same compound, the inhibition at 1 µM on GAK was 97.8%. In addition, at GAK (dose response analysis, read-out: Kd of interaction with GAK), the equilibrium dissociation constant (Kd) is 50 nM.
